In brackets after ≈: the same amount, converted by molar mass. Read-outs that look alike come from different tables or passages of the source.
Experiments:
E. faecalis DSM 2570 = test: MIC 50, broth micro-dilution, DSM strains; type: cell-based, Enterococcus faecalis
Source text: (§1) 3.2 Against Selected Bacteria of the ESKAPE Panel and Enterococcus faecalis (DSM Strains)
(§2) Tested reference compounds. Amikacin sulfate (Cat. No. 01693, Chem-Impex), Gentamicin sulfate (Cat. No. G4918, Sigma Aldrich).
(§3) Microbial strains. Enterococcus faecalis DSM 2570, Klebsiella pneumoniae DSM 26371, Acinetobacter baumannii DSM 105126, Enterobacter cloacae 3MRGN (clinical bronchial aspirate isolate).
(§4) Culture media and equipment. BBL™ Mueller Hinton Broth 2 (Lot. BCBW1143, Cat. No. 70192, Sigma); Trypcase Soy Blood-agar plates (Cat. No. 43001, Biomérieux); Cryoinstant (contains 15% glycerol; Cat. No. 822070ZA, VWR International); GasPak™ EZ Standard Incubation Container (Cat. No. 260671, Becton Dickinson); GasPak™ EZ Campy Container System Sachets (Cat. No. 260680, Becton Dickinson); 96-well deep well plate, 1 mL (Cat. No. 0030506.200, Eppendorf); Plate lid (Cat. No. 0030131.525, Eppendorf); 96-well plate, F-bottom (Cat. No. 260860, Nunc); Incubator (Sartorius Certomat BS-1); Laminar flow (Heraeus HS12); UV/VIS meter (Perkin Elmer Lambda Bio+); Platereader (Tecan Infinite M200 Pro).
(§5) Compound preparation. Compounds were prepared in MH2 media at a concentration of 5 mM and stored at 4° C. For testing, solutions of 128 μM were prepared in MH2, for tests against E. faecalis a solution of 512 μM was prepared. Out of these working solutions, 400 μL was transferred to wells in the first column of 96-well deep well plates. Each compound was transferred in triplicate. Plates were previously filled with 200 μL of MH2 media in all wells except for the wells in the first column. After compound and antibiotic addition, the compounds were serial two-fold diluted by transferring 200 μL from the first to the second column, then from the second to the third column and so on. Finally, 200 μL was removed from the last column.
(§6) Inoculum preparation. Microorganisms used were all revived from 15% glycerol storage in Croinstant tubes at −28° C. by plating them on blood agar plates. A. baumanni, and E. cloacae were grown aerobically at 37° C., E. faecalis was grown microaerophilically at 37° C., and K. pneumoniae was grown aerobically at 37° C. Plates were stored at 4° C. for up to two weeks, after which new plates were prepared from −28° C. A single colony was inoculated in MH2 media and grown at 37° C. and 200 rpm to an optical density (measured by UV/Vis spectroscopy) of 0.6-0.8 at 600 nm. Out of these suspensions, actual inoculums were prepared by diluting them to an optical density of 0.1 in MH2 media. From these inoculums, 200 μL was transferred to each well, resulting in a final compound concentration range of 64 μM-31.3 nM for, K. pneumoniae, A. baumanni, and E. cloacae, and 256 μM-125 nM for E. faecalis. Plates inoculated with E. faecalis were placed inside a GasPak™ Container System with GasPak™ Campy Container System sachets. All plates were incubated at 200 rpm for 18 h under the microorganism culturing conditions mentioned above.
(§7) MIC determination. After 18 h of growth, 200 μL was transferred to a 96-well F-bottom plate. The optical density was determined by a plate reader at 600 nm, with 10 s shaking before reading. Triplicate measurements were averaged, and a growth curve was plotted in Excel. The first column in which the growth reached half the value of maximum growth was determined as the MIC50 value for that particular compound.
(§8) MIC50. The MIC50 of a compound was assigned at which the bacterial growth reached half the value of maximum growth.

K. pneumoniae DSM 26371 = test: MIC 50, broth micro-dilution, DSM strains; type: cell-based, Klebsiella pneumoniae
Source text: as §1, §2, §3, §4, §5, §6, §7, §8

[1] = Enterococcus faecalis, DSM2570, read-out: MIC 50
[2] = Klebsiella pneumoniae, DSM26371, K. pneumoniae DSM 26371, read-out: MIC 50

Q: Which results are given for `N=C(NCCO)NC1[C@@H](O)C(OC2[C@@H](F)[C@H](O[C@H]3OC(CN)[C@@H](O)CC3N)C(N)C[C@H]2NC(=O)[C@@H](O)CCN)O[C@H](CO)[C@H]1O` (stereo partly shown) [ABX5029, Tobra-AHB-F-Gua 2-hydroxy-ethyl]?
A: MIC50 (E. faecalis DSM 2570; [1]): 64 µM (≈ 42 µg/mL); MIC50 (K. pneumoniae DSM 26371; [2]): 0.125 to 0.25 µM (≈ 0.0821 to 0.164 µg/mL)

Q: What does the source list for `N=C(NC[C@H]1CCNC1)NC1[C@@H](O)C(OC2[C@@H](F)[C@H](O[C@H]3OC(CN)[C@@H](O)CC3N)C(N)C[C@H]2NC(=O)[C@@H](O)CCN)O[C@H](CO)[C@H]1O` (stereo partly drawn) [ABX5042, Tobra-AHB-F-Gua (S) pyrrolidine-3-ylmethyl]?
A: MIC50 (E. faecalis DSM 2570; [1]): 8 µM (≈ 5.57 µg/mL); MIC50 (K. pneumoniae DSM 26371; [2]): 0.5 µM (≈ 0.348 µg/mL)

Q: How did the MIC50 (E. faecalis DSM 2570; [1]) turn out when `N=C(N)NC1C(O)[C@@H](CO)OC(OC2C(F)[C@H](O[C@H]3OC(CN)[C@@H](O)CC3N)C(N)C[C@H]2NC(=O)[C@@H](O)CCN)[C@@H]1O` (stereo partly shown) [ABX5006, Tobra-AHB-F-Gua] was run?
A: 4 to 8 µM (≈ 2.45 to 4.9 µg/mL)

Q: And the MIC50 (K. pneumoniae DSM 26371; [2])?
A: < 0.25 µM

Q: Which MIC50 (E. faecalis DSM 2570; [1]) does the source give for `NCC[C@H](O)C(=O)N[C@@H]1C[C@H](N)[C@@H](O[C@H]2O[C@H](CN)[C@@H](O)[C@H](O)[C@H]2O)[C@H](O)[C@H]1O[C@H]1O[C@H](CO)[C@@H](O)[C@H](N)[C@H]1O` [Amikacin, amikacin, reference compound] here?
A: > 64 µM

Q: What about the MIC50 (K. pneumoniae DSM 26371; [2]) of the same compound?
A: 0.5 µM (≈ 0.293 µg/mL)

Q: `N=C(NCc1ccncc1)NC1[C@@H](O)C(OC2[C@@H](F)[C@H](O[C@H]3OC(CN)[C@@H](O)CC3N)C(N)C[C@H]2NC(=O)[C@@H](O)CCN)O[C@H](CO)[C@H]1O` (stereo partly shown) [ABX5048, Tobra-AHB-F-Gua pyridin-4-yl methyl] was tested. Which MIC50 (E. faecalis DSM 2570; [1]) did it give?
A: 8 µM (≈ 5.63 µg/mL)

Q: What about the MIC50 (K. pneumoniae DSM 26371; [2]) of the same compound?
A: 0.5 µM (≈ 0.352 µg/mL)

Q: With `N=C(NCC1CCOC1)NC1[C@@H](O)C(OC2[C@@H](F)[C@H](O[C@H]3OC(CN)[C@@H](O)CC3N)C(N)C[C@H]2NC(=O)[C@@H](O)CCN)O[C@H](CO)[C@H]1O` (stereo partly shown) [ABX5051, Tobra-AHB-F-Gua tetrahydrofuran-3-yl methyl] as the compound, how does the MIC50 (E. faecalis DSM 2570; [1]) read?
A: 8 µM (≈ 5.57 µg/mL)

Q: And the MIC50 (K. pneumoniae DSM 26371; [2])?
A: 0.5 µM (≈ 0.348 µg/mL)

Q: Which “MIC50” value (E. faecalis DSM 2570) does the source give for `NCC[C@H](O)C(=O)N[C@@H]1C[C@H](N)[C@@H](O[C@H]2O[C@H](CN)[C@@H](O)[C@@H](O)[C@H]2O)[C@H](O)[C@H]1O[C@H]1O[C@H](CO)[C@@H](O)[C@H](N)[C@H]1O` [ABX3002, 3′Epi-KanaA-AHB] here?
A: 128 µM (≈ 75 µg/mL)

Q: And the “MIC50” value (K. pneumoniae DSM 26371; K. pneumoniae DSM 26371)?
A: 8 µM (≈ 4.68 µg/mL)

Q: `N=C(NC[C@@H]1CNCCO1)NC1[C@@H](O)C(OC2[C@@H](F)[C@H](O[C@H]3OC(CN)[C@@H](O)CC3N)C(N)C[C@H]2NC(=O)[C@@H](O)CCN)O[C@H](CO)[C@H]1O` (stereo partly drawn) [ABX5040, Tobra-AHB-F-Gua (S) morpholin-2-yl methyl] was tested. Which MIC50 (E. faecalis DSM 2570; [1]) did it give?
A: 16 µM (≈ 11.4 µg/mL)

Q: And the MIC50 (K. pneumoniae DSM 26371; [2])?
A: 0.5 µM (≈ 0.356 µg/mL)
